Results from publication PMC9394386 (Cancer Discovery, 2022).
Where “and” joins values, the source holds several entries; their conditions need not be identical. Identical values can stand only once. One block for each molecule: values may come before it. Positions of bridges follow the written chain, without caps; N, C: chain ends. Non-standard residues stand in square brackets, D forms with d. Residues, ends and D or L forms follow the SMILES beside them. NMeF = CN[C@@H](Cc1ccccc1)C(=O)O; NMeNle = CCCC[C@H](NC)C(=O)O; Sar = CNCC(=O)O

Assays:
PD-L1 (aa 19-239) [1] = target: T1, PD-L1 (aa 19-239) (Homo sapiens, UniProt Q9NZQ7); experiment: SEC-MALS of PD-L1 complexes; assay type: binding; conditions: 15 µmol/L PD-L1, 100 µmol/L compound
PD-L1 [2] = target: T2, PD-L1 (Homo sapiens, UniProt Q9NZQ7); experiment: PD-L1/PD-1 HTRF binding assay, human PD-L1
Target sequence in this assay (Q9NZQ7 19-238 limits assumed): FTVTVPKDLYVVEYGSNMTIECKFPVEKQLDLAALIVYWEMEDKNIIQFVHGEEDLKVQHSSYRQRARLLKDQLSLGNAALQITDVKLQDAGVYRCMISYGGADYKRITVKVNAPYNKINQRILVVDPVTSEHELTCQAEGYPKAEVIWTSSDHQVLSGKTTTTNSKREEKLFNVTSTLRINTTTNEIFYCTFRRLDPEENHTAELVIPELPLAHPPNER

cynomolgus PD-L1 = cynomolgus PD-L1 (Macaca fascicularis, UniProt G7PSE7); experiment: PD-L1/PD-1 HTRF binding assay, cynomolgus PD-L1
rat PD-L1 = rat PD-L1 (Rattus norvegicus, UniProt D4AE25); experiment: PD-L1/PD-1 HTRF binding assay, rat PD-L1; conditions: human PD-1
mouse PD-L1 = mouse PD-L1 (Mus musculus, UniProt Q9EP73); experiment: PD-L1/PD-1 HTRF binding assay, mouse PD-L1
human PD-L2 = human PD-L2 (Homo sapiens, UniProt Q9BQ51); experiment: PD-L2/PD-1 HTRF binding assay
[3] = system: PD-1–mediated SHP recruitment; experiment: PD-1–SHP reporter assay; assay type: cell-based; conditions: read-out: IC50, SHP recruitment
NFAT signaling = experiment: NFAT reporter assay; assay type: cell-based; conditions: read-out: NFAT activation (IC50 in Table 1, EC50 in text)
PD-L1 on CHO PD-L1 cells [4] = target: T3, PD-L1 on CHO PD-L1 cells (Homo sapiens, UniProt Q9NZQ7); experiment: Cell-based PD-1 binding assay; conditions: concentrations ≥160 nmol/L
PD-L1 [5] = target: T2, PD-L1; experiment: Flow cytometry competition with anti–PD-L1 mAbs on CHO PD-L1 cells; assay type: cell-based; conditions: 1 µmol/L
Target sequence in this assay (Q9NZQ7 19-290): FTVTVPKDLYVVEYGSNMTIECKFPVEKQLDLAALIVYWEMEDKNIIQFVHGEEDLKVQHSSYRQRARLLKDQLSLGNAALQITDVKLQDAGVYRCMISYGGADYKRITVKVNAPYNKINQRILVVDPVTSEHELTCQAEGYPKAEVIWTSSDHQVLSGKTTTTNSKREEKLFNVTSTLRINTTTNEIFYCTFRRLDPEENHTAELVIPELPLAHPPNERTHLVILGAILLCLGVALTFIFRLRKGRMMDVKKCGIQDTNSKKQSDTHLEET

[6] = target: Human PD-L1-FLAG tag protein (Homo sapiens, UniProt Q9NZQ7); experiment: SPR antibody competition; assay type: binding; conditions: 1 µM
PD-L1 (aa 19-239) [7] = target: T1, PD-L1 (aa 19-239); experiment: Isothermal titration calorimetry; assay type: binding
PD-L1 on CHO PD-L1 cells [8] = target: T3, PD-L1 on CHO PD-L1 cells; experiment: Unoccupied and total PD-L1 by flow cytometry; assay type: cell-based; conditions: 18 hours
PD-L1 on CHO PD-L1 cells [9] = target: T3, PD-L1 on CHO PD-L1 cells; experiment: Live-cell imaging of PD-L1 internalization; assay type: cell-based; conditions: 1 µmol/L
PD-L1 in CHO PD-L1 cells [10] = target: T4, PD-L1 in CHO PD-L1 cells (Homo sapiens, UniProt Q9NZQ7); experiment: Total PD-L1 by Western blot; assay type: cell-based; conditions: 0.2 or 1 µM
PD-L1 in CHO PD-L1 cells [11] = target: T4, PD-L1 in CHO PD-L1 cells; experiment: Confocal microscopy of PD-L1 internalization; assay type: cell-based; conditions: 18 hours, INCB086550 1 µmol/L, atezolizumab 10 µg/mL
[12] = target: human PD-L1 on MBT2 clones (Homo sapiens, UniProt Q9NZQ7); experiment: Isogenic MBT2 cell line PD-L1 internalization; assay type: cell-based; conditions: EC50, PD-L1 internalization (MIH1), 16 hours
PD-L1 on monocytes [13] = target: T5, PD-L1 on monocytes (Homo sapiens, UniProt Q9NZQ7); experiment: Unoccupied PD-L1 on monocytes in human whole blood; assay type: cell-based
PD-L1 on monocytes [14] = target: PD-L1 on monocytes (Macaca fascicularis, UniProt G7PSE7); experiment: Unoccupied PD-L1 on monocytes in cynomolgus whole blood; assay type: cell-based, cynomolgus monkey; conditions: read-out: EC50, reducing unoccupied cell-surface PD-L1 on monocytes
[15] = system: human T cells with CHO PD-L1 cells; experiment: Artificial antigen-presenting cell system, IFNγ secretion; assay type: cell-based; conditions: for Maximal levels of IFNγ, induction: atezolizumab at 10 nmol/L
MC38 huPD-L1 tumors [16] = experiment: MC38 huPD-L1 tumor efficacy in C57BL/6 mice; assay type: in vivo, mouse
MC38 huPD-L1 tumors [17] = experiment: MC38 huPD-L1 tumor efficacy in NSG mice; assay type: in vivo, mouse; conditions: NSG mice, 2, 20, 200 mg/kg b.i.d.
[18] = target: PD-L1 on MC38 huPD-L1 tumors (Homo sapiens, UniProt Q9NZQ7); experiment: PD-L1 levels on MC38 huPD-L1 tumors; assay type: in vivo, mouse; conditions: 200 mg/kg, clone MIH1
MDA-MB-231 tumors = experiment: MDA-MB-231 tumor efficacy in NSG mice; assay type: in vivo, mouse; conditions: 20 mg/kg
[19] = 28-day toxicology study in rats; assay type: in vivo, rat
[20] = 28-day toxicology study in monkeys; assay type: in vivo, monkey
Tolerability in mice = conditions: mouse, in vivo
PD-L1 on monocytes [21] = target: T5, PD-L1 on monocytes; experiment: Available PD-L1 on monocytes from clinical study patients; assay type: in vivo
[22] = system: plasma CXCL9, CXCL10, IFNγ, PD-L1; experiment: Proteins in peripheral blood of phase I patients; assay type: in vivo, human
target lesion = experiment: Clinical activity in phase I study; assay type: in vivo, human; conditions: patient, week 24
[23] = all tested doses up to 1,000 mg/kg

human PD-L1 on MBT2 clones, sequence (Q9NZQ7 19-127 limits assumed): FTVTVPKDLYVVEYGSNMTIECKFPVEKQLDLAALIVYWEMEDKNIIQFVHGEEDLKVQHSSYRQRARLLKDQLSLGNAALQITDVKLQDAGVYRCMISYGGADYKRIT
T1 sequence (Q9NZQ7 19-239): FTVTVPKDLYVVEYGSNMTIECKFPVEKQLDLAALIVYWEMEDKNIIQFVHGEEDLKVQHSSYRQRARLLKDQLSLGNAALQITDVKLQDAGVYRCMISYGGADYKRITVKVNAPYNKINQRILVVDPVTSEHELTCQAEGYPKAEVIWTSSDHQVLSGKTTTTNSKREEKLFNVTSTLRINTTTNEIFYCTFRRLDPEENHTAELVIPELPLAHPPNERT
T4 sequence (Q9NZQ7 19-290): as the sequence (Q9NZQ7 19-290) above
T3 sequence (Q9NZQ7 19-290): as above
T5 sequence (Q9NZQ7 19-290): as above
mouse PD-L1, sequence (Q9EP73 19-238 limits assumed): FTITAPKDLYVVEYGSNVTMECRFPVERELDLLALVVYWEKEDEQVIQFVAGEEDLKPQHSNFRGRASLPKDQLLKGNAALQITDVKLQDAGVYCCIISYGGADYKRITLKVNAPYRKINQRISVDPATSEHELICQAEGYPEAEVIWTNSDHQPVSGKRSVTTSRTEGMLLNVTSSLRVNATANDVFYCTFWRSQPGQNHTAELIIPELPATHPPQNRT
human PD-L2, sequence (Q9BQ51 20-219 limits assumed): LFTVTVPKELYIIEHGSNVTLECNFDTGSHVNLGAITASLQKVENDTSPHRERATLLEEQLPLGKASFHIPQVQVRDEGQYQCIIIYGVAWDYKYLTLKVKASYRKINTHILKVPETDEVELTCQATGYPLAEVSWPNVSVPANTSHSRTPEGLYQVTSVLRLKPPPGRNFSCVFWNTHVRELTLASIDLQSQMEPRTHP
rat PD-L1, sequence (D4AE25 19-238): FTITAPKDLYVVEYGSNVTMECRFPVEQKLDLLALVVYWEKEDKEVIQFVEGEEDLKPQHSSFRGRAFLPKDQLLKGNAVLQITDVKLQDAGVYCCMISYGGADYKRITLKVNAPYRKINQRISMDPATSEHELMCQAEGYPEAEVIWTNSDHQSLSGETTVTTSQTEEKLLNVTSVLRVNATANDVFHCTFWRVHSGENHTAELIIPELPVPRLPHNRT
rat PD-L1, sequence (Q15116 25-167 partner): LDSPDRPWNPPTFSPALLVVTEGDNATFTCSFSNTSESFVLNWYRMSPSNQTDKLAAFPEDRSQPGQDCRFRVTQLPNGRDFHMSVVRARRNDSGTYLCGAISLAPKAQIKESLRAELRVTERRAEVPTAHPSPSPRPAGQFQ
cynomolgus PD-L1, sequence (G7PSE7 19-239): as the sequence (Q9NZQ7 19-239) above, with A33T, A34S, S62N, R68Q, Q82R, F173L, T185A, T192I, H215L counted along it
cynomolgus PD-L1, sequence (Q15116 25-167 partner): as the sequence (Q15116 25-167 partner) above
PD-L1 on monocytes (Macaca fascicularis, UniProt G7PSE7), sequence (G7PSE7 19-290): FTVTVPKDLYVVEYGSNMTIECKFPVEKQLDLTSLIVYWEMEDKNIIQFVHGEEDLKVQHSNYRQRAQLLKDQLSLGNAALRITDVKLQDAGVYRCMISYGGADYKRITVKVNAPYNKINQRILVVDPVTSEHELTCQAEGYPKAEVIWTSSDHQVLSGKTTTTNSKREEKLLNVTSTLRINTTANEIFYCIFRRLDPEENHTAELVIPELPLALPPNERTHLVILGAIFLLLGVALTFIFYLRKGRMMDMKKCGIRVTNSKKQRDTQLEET
PD-L1 on MC38 huPD-L1 tumors, sequence (Q9NZQ7 19-290): as the sequence (Q9NZQ7 19-290) above
Human PD-L1-FLAG tag protein, sequence (Q9NZQ7 19-290): as above

SEC-MALS peak of PD-L1 in presence of compound (PD-L1 (aa 19-239) [1]): approximately 33 kDa
Molecule: CCCC[C@H]1C(=O)N(C)CC(=O)N[C@@H](CC(=O)O)C(=O)N[C@@H](C(C)C)C(=O)N(C)[C@@H](Cc2ccccc2)C(=O)N[C@@H](Cc2ccc(O)cc2)C(=O)N(C)CC(=O)N[C@@H](Cc2c[nH]c3ccccc23)C(=O)N[C@@H](Cc2ccc(O)cc2)C(=O)N[C@@H](CC(C)C)C(=O)N[C@H](C(=O)NCC(N)=O)CSCC(=O)N[C@@H](Cc2ccccc2)C(=O)N(C)[C@@H](Cc2ccccc2)C(=O)N1C [peptide 71, reference compound] ({CH2CO}-F[NMeF][NMeNle][Sar]DV[NMeF]Y[Sar]WYLCG-NH2; thioether N-13; N-terminus and C-terminus assumed)

Molecule: Cc1c(Nc2nccc3cc(CN4CC[C@@H](O)C4)cnc23)cccc1-c1cccc(-c2nc3cc(CN4CC[C@@H](C(=O)O)C4)cc(C#N)c3o2)c1C [INCB086550]
IC50 (PD-L1 [2]): 3.1 ± 1.2 nM | IC50 (cynomolgus PD-L1): 4.9 ± 1.6 nM | IC50 (rat PD-L1): 1.9 nM and < 1.5 nM | IC50 (mouse PD-L1): > 10000 nM | Binding to mouse PD-L1 (mouse PD-L1; HTRF): not detected | IC50 (human PD-L2): > 10000 nM | Inhibition of binding of PD-L2 to human PD-1 (human PD-L2; concentrations up to 10 µmol/L): not inhibited | IC50 [3]: 6.3 ± 2.5 nM | EC50 (NFAT signaling): 21.4 ± 8.4 nM | Inhibition of PD-1/PE binding (PD-L1 on CHO PD-L1 cells [4]): > 90% | Binding of atezolizumab and durvalumab to PD-L1 after pretreatment (PD-L1 [5]): blocked binding | Binding of atezolizumab and durvalumab to PD-L1 (SPR) [6]: inhibited binding | SEC-MALS peak of PD-L1 in presence of compound (PD-L1 (aa 19-239) [1]): ~69 kDa | Binding stoichiometry n (ITC) (PD-L1 (aa 19-239) [7]): 0.6 | Epitope occupancy of PD-L1, clone MIH1 (PD-L1 on CHO PD-L1 cells [8]): > 90% | Reduction of PD-L1 staining, clone 28-8 (total cell-surface PD-L1) (PD-L1 on CHO PD-L1 cells [8]): approximately 70% | Time to maximal PD-L1 internalization (PD-L1 on CHO PD-L1 cells [9]): ~4 h | Change in total PD-L1 in cells (PD-L1 in CHO PD-L1 cells [10]): decrease of overall PD-L1 | PD-L1 internalization, clone 28-8 staining (PD-L1 in CHO PD-L1 cells [11]): internalization of PD-L1 and increased cytoplasmic staining | EC50 ([12]; MBT2-PD-L1 high): 0.1 nM | EC50 ([12]; MBT2-PD-L1 low): 3.7 nM | EC50 ([12]; MBT2-PD-L1 medium): 0.4 nM | EC50 (PD-L1 on monocytes [13]): 88 nM | IC90 (PD-L1 on monocytes [13]; read-out: whole blood IC90): 792 nM | EC50 (PD-L1 on monocytes [14]): 4.5 nM | Maximal levels of IFNγ, induction [15]: 425% | Toxicity to cells ([15]; cell-based assays): No overt toxicity | tumor growth inhibition (TGI) (MC38 huPD-L1 tumors [16]; 2 mg/kg p.o. b.i.d., day 16): 32% | tumor growth inhibition (TGI) (MC38 huPD-L1 tumors [16]; 20 mg/kg p.o. b.i.d., day 16): 66% | tumor growth inhibition (TGI) (MC38 huPD-L1 tumors [16]; 200 mg/kg p.o. b.i.d., day 16): 69% | Antitumor activity in immunodeficient mice (MC38 huPD-L1 tumors [17]): abolished | Maximum reduction of occupied PD-L1 [18]: > 90% | Antitumor activity in immunodeficient mice (MDA-MB-231 tumors): abolished | Dose at which associated events were observed (minimal to mild, nonadverse) [19]: 1,000 mg/kg/day | Tolerability [19, 23]: well tolerated | Tolerability [20, 23]: well tolerated | Doses with emesis ([20]; no evidence of target organ toxicity): ≥ 200 mg/kg/day | Adverse effects in mice (Tolerability in mice): no adverse effects | Dose reaching maximum inhibition of free PD-L1 (PD-L1 on monocytes [21]): 200 mg b.i.d. | Increase in plasma cell-free PD-L1 vs baseline ([22]; all dose levels, cycle 2 day 1): 1.4 fold | Increase in plasma IFNγ vs baseline ([22]; cycle 1 day 8): 3.8 fold | Increase in plasma CXCL9 vs baseline ([22]; cycle 2 day 1): 1.8 fold | Increase in plasma CXCL10 vs baseline ([22]; cycle 2 day 1): 1.4 fold | Preliminary clinical activity (target lesion): decrease in target lesion volume

Molecule: atezolizumab: clinical anti–PD-L1 monoclonal antibody [reference compound]
PD-L1 internalization, clone 28-8 staining (PD-L1 in CHO PD-L1 cells [11]): only minor levels of PD-L1 internalization | Maximal levels of IFNγ, induction [15]: 433% | tumor growth inhibition (TGI) (MC38 huPD-L1 tumors [16]; 5 mg/kg intraperitoneally every 5 days): 73%
